Laboratory results published in patent US20150299660A1, “DIFFERENTIATION OF HUMAN FIBROBLAST CELLS” (International Stem Cell Corporation, priority 2012, published 2015).

How the values were obtained:
[1] = tested on: mesenchymal stem cells; settings: shown previously; cited from earlier work
[2] = tested on: MSC which have under gone chondrogenesis; assay: Cartilage / matrix formation by MSC which have undergone chondrogenesis, complex sugars in the media; assay type: cell-based; settings: sugar in the media
Text: (§1) As used herein, the terms “complex sugar” and “complex sugars” includes monomeric and polymeric sugar chains. The use of sugars as a supplement enhancing extracellular matrix deposition is a unique aspect to the present invention. They can also be specific for cell type. As an example, previous studies have shown mesenchymal stem for chondrogenesis using a similar formulation as disclosed in the present invention, but without glucosamine sulfate. […] In a surprising aspect the present invention discloses that the use of certain complex sugars in the media massively increases the accumulation of calcium derived from osteocytes while the use of other sugars actively suppresses the accumulation of calcium. […] Fibroblasts allowed to acquire a MSC like state require galactose, glucuronic acid and glucosamine sulfate for cartilage formation, while hyaluronic acid will repress it. Examples of sugars are hyaluronic acid, galactose, glucosamine sulfate, glucuronic acid, mannose, sialic acid, chondroitin sulfate and galactosamine.

[3] = tested on: MSC which have undergone osteogenesis; assay: Calcium / matrix deposition by MSC which have undergone osteogenesis, complex sugars in the media; assay type: cell-based; settings: sugar in the media
Text: as §1

[4] = tested on: Fibroblasts allowed to acquire a MSC like state; assay: Cartilage formation by fibroblasts allowed to acquire a MSC like state, complex sugars in the media; assay type: cell-based; settings: sugar in the media
Text: as §1
Fibroblast cells were grown in FibroLife S2 on standard tissue culture-treated plastic. Fibroblasts cells were plated at 20,000 cells/cm^2 and allowed the cells to grow to 80-90% confluence actively proliferating.
The cells were centrifuged and the cells resuspended at 2.5×10^7 cells/ml in 1.5% alignate solution. The cells in the alignate solution are loaded into a syringe and applied to a stirred 100 mM calcium chloride solution to form microbeads. After 10 minutes, the calcium chloride solution was removed and the microbeads transferred to a 48 well plate. The microbeads were washed twice with 0.5 ml ChondroLife Chondrogenesis media (Table 7). The plates were incubated at 37° C., 5% CO2. The media was changed every 2-3 days for 3 weeks.
To examine the growth of the chondrocytes, the microbeads were fixed, frozen in OCT compound, cut in 5 μM sections and mounted on glass slides. The microbeads were stained with Alcian Blue to detect the presence of sulfated proteoglycans.

[5] = tested on: fibroblasts; settings: has been shown; cited from earlier work
[6] = tested on: human fibroblast cells; assay: Differentiation of human fibroblast cells into adipocytes (lipid accumulation, Oil Red O); assay type: cell-based; settings: Troglitazone in combination with other elements
Method: Fibroblast cells were grown in FibroLife S2 on standard tissue culture-treated plastic. Fibroblasts cells were plated at 20,000 cells/cm^2 and allowed the cells to grow to confluence (roughly 80,000 cells/cm^2) in approximately 2 days. Once the cells reached confluence the cell culture media was changed to AdipoLife Complete DifFactor 1 media. The cell culture media continued to be changed every 2 days. After 4 days the cell culture media was changed to AdipoLife Complete DifFactor 2 media for 17 days. Lipid accumulation was visible after 5 days culture in the AdipoLife Complete DifFactor 2 media. After 3 weeks of culture the cells were stained with Oil Red O stained to assay for accumulated lipids

For `N[C@H]1C(O)O[C@H](CO)[C@@H](O)[C@@H]1O.O=S(=O)(O)O` (some centres unmarked) [glucosamine sulfate], which “effect on matrix secretion” value [1] is on record?
Its value is “detrimental to matrix secretion”.

And the “effect on cartilage formation / matrix deposition” value [2]?
The value was “repress matrix deposition”.

And the “effect on calcium deposition / matrix formation” value [3]?
The value was “vastly increased amounts of calcium deposition”.

What about the “effect on cartilage formation” value [4] of the same compound?
The value was “require”.

For hyaluronic acid, which “effect on cartilage formation / matrix deposition” value [2] is on record?
Its value is “vastly augments cartilage formation”.

What about the “effect on calcium deposition / matrix formation” value [3] of the same compound?
Its value is “vastly increased amounts of calcium deposition”.

What about the “effect on cartilage formation” value [4] of the same compound?
The value was “repress it”.

What about the “effect on matrix deposition” value [5] of the same compound?
Its value is “detrimental to matrix deposition”.

For `O=C[C@H](O)[C@@H](O)[C@H](O)[C@H](O)C(=O)O` [glucuronic acid], which “effect on cartilage formation / matrix deposition” value [2] is on record?
Its value is “vastly augments cartilage formation”.

What about the “effect on cartilage formation” value [4] of the same compound?
The value was “require”.

Which “surface of the human cell culture covered with lipid-accumulating cells” value [6] does the source give for `Cc1c(C)c2c(c(C)c1O)CCC(C)(COc1ccc(CC3SC(=O)NC3=O)cc1)O2` (centres unmarked) [Troglitazone] here?
The value was at least 70%.

Which results are given for `O=C[C@H](O)[C@@H](O)[C@@H](O)[C@H](O)CO` [galactose]?
effect on cartilage formation / matrix deposition [2]: vastly augments cartilage formation; effect on calcium deposition / matrix formation [3]: vastly increased amounts of calcium deposition; effect on cartilage formation [4]: require
